Tested on: Energy system protein genes
Assay: DNA chip mRNA expression in yeast, energy system protein genes (Table 4)
Assay type: cell-based, Saccharomyces cerevisiae S288C
Experimental: Yeast (Saccharomyces cerevisiae S288C (α SUC2mal mel gap2 CUP1)) were incubated at 25° C. on YPD medium (yeast extract 1%, polypepton 2%, glucose 2%). One of toxic chemical substances was added to the cells at logarithmic growth phase, and the cells were further incubated for two hours. Cells were cultured without any chemical substance in the same condition, and were used as control. Concentrations of the chemical substances were defined to inhibit the growth of the yeast but not lead to death.
After completion of the incubation, the culture was centrifuged to collect the cells. To the cells, sodium acetate buffer (50 mM sodium acetate, 10 mM EDTA, 1% SDS) was added, and the mixture was shaken at 65° C. for five minutes, followed by returning to room temperature, and obtaining the supernatant, of which the procedures were repeated two times. To the supernatant, ½ amount of a solution of phenol/chloroform was added, and the mixture was centrifuged to give a supernatant, which was added with an equal amount of chloroform, and the mixture was centrifuged to give a supernatant. To the supernatant, an equal amount of isopropanol containing 0.3 M sodium acetate was added, and the mixture was allowed to stand at room temperature for 30 minutes, after which the mixture was centrifuged to give a sediment of the whole RNAs. Seventy % ethanol was added to the sediment, and the mixture was again centrifuged to give a sediment, which was then dried and dissolved in water. mRNA was isolated from the whole RNAs as followings. In view of the fact that a poly A chain is attached to the 3′ terminus of mRNA, a polynucleotide having a poly T structure which was immobilized on the surface of latex beads was used to trap the mRNA, and then the mRNA was washed and eluted with spine column (Oligotex-dT30<Super>mRNA Purification Kit, Takara). Reverse transcription of the mRNA was conducted with a reverse transcriptase (Super Script II Reverse Transcriptase; catalogue No. 18064-014, GibcoBRL) using fluorescence-labeled nucleotides to give cDNAs that were introduced with Cy3-dUTP or Cy5-dUTP during the reverse transcription.
The labeled cDNAs were dissolved in TE buffer (10mM Tris-HCl/1 mM EDTA, pH8.0), and the solution was dropped on the DNA chip containing the whole genes of yeast (DNA Chip Research Inc. Japan) so that the cDNAs were hybridized on the DNA chip at 65° C. for over 12 hours. The fluoresces intensity of the DNA chip was read with a scanner, and the ratio relative to the fluorescence intensity resulting from the absence of chemical substance was estimated as the following, which is shown in Tables 1 to 9: […]

## [Cl][Pb][Cl] [(4), PbCl2]
Yeast gene YAL060W
  The level of expressed mRNA in the presence of chemical substance/The level of expressed mRNA in the absence of chemical substance: 2.7
Yeast gene YBL058W, cells incubated two hours with the chemical substance
  The level of expressed mRNA in the presence of chemical substance/The level of expressed mRNA in the absence of chemical substance: 1.1
Yeast gene YBL099W, cells incubated two hours with the chemical substance
  The level of expressed mRNA in the presence of chemical substance/The level of expressed mRNA in the absence of chemical substance: 1.4
Yeast gene YBR001C, cells incubated two hours with the chemical substance
  The level of expressed mRNA in the presence of chemical substance/The level of expressed mRNA in the absence of chemical substance: 1.4
Yeast gene YBR185C, cells incubated two hours with the chemical substance
  The level of expressed mRNA in the presence of chemical substance/The level of expressed mRNA in the absence of chemical substance: 2.0
Yeast gene YBR221C, cells incubated two hours with the chemical substance
  The level of expressed mRNA in the presence of chemical substance/The level of expressed mRNA in the absence of chemical substance: 1.5
Yeast gene YCL040W
  The level of expressed mRNA in the presence of chemical substance/The level of expressed mRNA in the absence of chemical substance: 2.0
Yeast gene YCR012W
  The level of expressed mRNA in the presence of chemical substance/The level of expressed mRNA in the absence of chemical substance: 1.2
Yeast gene YCR046C, cells incubated two hours with the chemical substance
  The level of expressed mRNA in the presence of chemical substance/The level of expressed mRNA in the absence of chemical substance: 1.6
Yeast gene YCR105W, cells incubated two hours with the chemical substance
  The level of expressed mRNA in the presence of chemical substance/The level of expressed mRNA in the absence of chemical substance: 3.0
Yeast gene YDL021W
  The level of expressed mRNA in the presence of chemical substance/The level of expressed mRNA in the absence of chemical substance: 3.7
Yeast gene YDL067C, cells incubated two hours with the chemical substance
  The level of expressed mRNA in the presence of chemical substance/The level of expressed mRNA in the absence of chemical substance: 1.3
Yeast gene YDL078C, cells incubated two hours with the chemical substance
  The level of expressed mRNA in the presence of chemical substance/The level of expressed mRNA in the absence of chemical substance: 0.8
Yeast gene YDL107W, cells incubated two hours with the chemical substance
  The level of expressed mRNA in the presence of chemical substance/The level of expressed mRNA in the absence of chemical substance: 2.2
Yeast gene YDL174C
  The level of expressed mRNA in the presence of chemical substance/The level of expressed mRNA in the absence of chemical substance: 1.3
Yeast gene YDL181W, cells incubated two hours with the chemical substance
  The level of expressed mRNA in the presence of chemical substance/The level of expressed mRNA in the absence of chemical substance: 1.8
Yeast gene YDR001C
  The level of expressed mRNA in the presence of chemical substance/The level of expressed mRNA in the absence of chemical substance: 1.0
Yeast gene YDR050C, cells incubated two hours with the chemical substance
  The level of expressed mRNA in the presence of chemical substance/The level of expressed mRNA in the absence of chemical substance: 1.8
Yeast gene YDR079W, cells incubated two hours with the chemical substance
  The level of expressed mRNA in the presence of chemical substance/The level of expressed mRNA in the absence of chemical substance: 1.1
Yeast gene YDR178W, cells incubated two hours with the chemical substance
  The level of expressed mRNA in the presence of chemical substance/The level of expressed mRNA in the absence of chemical substance: 2.2
Yeast gene YDR231C
  The level of expressed mRNA in the presence of chemical substance/The level of expressed mRNA in the absence of chemical substance: 1.5
Yeast gene YDR298C, cells incubated two hours with the chemical substance
  The level of expressed mRNA in the presence of chemical substance/The level of expressed mRNA in the absence of chemical substance: 1.3
Yeast gene YDR377W, cells incubated two hours with the chemical substance
  The level of expressed mRNA in the presence of chemical substance/The level of expressed mRNA in the absence of chemical substance: 1.4
Yeast gene YDR529C, cells incubated two hours with the chemical substance
  The level of expressed mRNA in the presence of chemical substance/The level of expressed mRNA in the absence of chemical substance: 3.2
Yeast gene YEL024W, cells incubated two hours with the chemical substance
  The level of expressed mRNA in the presence of chemical substance/The level of expressed mRNA in the absence of chemical substance: 1.1
Yeast gene YEL039C, cells incubated two hours with the chemical substance
  The level of expressed mRNA in the presence of chemical substance/The level of expressed mRNA in the absence of chemical substance: 5.1
Yeast gene YER178W
  The level of expressed mRNA in the presence of chemical substance/The level of expressed mRNA in the absence of chemical substance: 1.0
Yeast gene YFL057C
  The level of expressed mRNA in the presence of chemical substance/The level of expressed mRNA in the absence of chemical substance: 1.8
Yeast gene YFR053C
  The level of expressed mRNA in the presence of chemical substance/The level of expressed mRNA in the absence of chemical substance: 2.2
Yeast gene YGL018C, cells incubated two hours with the chemical substance
  The level of expressed mRNA in the presence of chemical substance/The level of expressed mRNA in the absence of chemical substance: 3.0
Yeast gene YGL062W
  The level of expressed mRNA in the presence of chemical substance/The level of expressed mRNA in the absence of chemical substance: 0.6
Yeast gene YGL187C, cells incubated two hours with the chemical substance
  The level of expressed mRNA in the presence of chemical substance/The level of expressed mRNA in the absence of chemical substance: 1.8
Yeast gene YGL191W, cells incubated two hours with the chemical substance
  The level of expressed mRNA in the presence of chemical substance/The level of expressed mRNA in the absence of chemical substance: 1.8
Yeast gene YGL205W, cells incubated two hours with the chemical substance
  The level of expressed mRNA in the presence of chemical substance/The level of expressed mRNA in the absence of chemical substance: 0.8
Yeast gene YGL256W, cells incubated two hours with the chemical substance
  The level of expressed mRNA in the presence of chemical substance/The level of expressed mRNA in the absence of chemical substance: 1.3
Yeast gene YGR043C
  The level of expressed mRNA in the presence of chemical substance/The level of expressed mRNA in the absence of chemical substance: 7.9
Yeast gene YGR062C, cells incubated two hours with the chemical substance, 25° C., YPD medium
  The level of expressed mRNA in the presence of chemical substance/The level of expressed mRNA in the absence of chemical substance: 1.4
Yeast gene YGR087C, cells incubated two hours with the chemical substance
  The level of expressed mRNA in the presence of chemical substance/The level of expressed mRNA in the absence of chemical substance: 0.6
Yeast gene YGR174C, cells incubated two hours with the chemical substance
  The level of expressed mRNA in the presence of chemical substance/The level of expressed mRNA in the absence of chemical substance: 2.4
Yeast gene YGR192C
  The level of expressed mRNA in the presence of chemical substance/The level of expressed mRNA in the absence of chemical substance: 1.0
Yeast gene YGR244C
  The level of expressed mRNA in the presence of chemical substance/The level of expressed mRNA in the absence of chemical substance: 1.6
Yeast gene YGR254W
  The level of expressed mRNA in the presence of chemical substance/The level of expressed mRNA in the absence of chemical substance: 1.3
Yeast gene YHR179W
  The level of expressed mRNA in the presence of chemical substance/The level of expressed mRNA in the absence of chemical substance: 0.7
Yeast gene YIL160C
  The level of expressed mRNA in the presence of chemical substance/The level of expressed mRNA in the absence of chemical substance: 3.5
Yeast gene YIR031C, cells incubated two hours with the chemical substance
  The level of expressed mRNA in the presence of chemical substance/The level of expressed mRNA in the absence of chemical substance: 0.6
Yeast gene YJL052W
  The level of expressed mRNA in the presence of chemical substance/The level of expressed mRNA in the absence of chemical substance: 1.8
Yeast gene YJL121C, cells incubated two hours with the chemical substance
  The level of expressed mRNA in the presence of chemical substance/The level of expressed mRNA in the absence of chemical substance: 0.8
Yeast gene YJL166W, cells incubated two hours with the chemical substance
  The level of expressed mRNA in the presence of chemical substance/The level of expressed mRNA in the absence of chemical substance: 1.3
Yeast gene YJL216C, cells incubated two hours with the chemical substance
  The level of expressed mRNA in the presence of chemical substance/The level of expressed mRNA in the absence of chemical substance: 0.9
Yeast gene YJR009C
  The level of expressed mRNA in the presence of chemical substance/The level of expressed mRNA in the absence of chemical substance: 1.0

— patent publication US8192962B2, “Processes for detecting toxic substances” (Daikin Industries, Ltd., priority 2001, dated 2012)
